2 compounds from US20130041005A1, “PHARMACEUTICAL COMPOSITIONS COMPRISING NEUROPILIN INHIBITORS, AND THEIR USE FOR THE PREVENTION AND/OR TREATMENT OF ANGIOGENIC DISORDERS AND CANCERS” (TRAGEX PHARMA, priority 2011, published 2013) can be followed below.

The term IC50 denotes the midpoint of a concentration-inhibition curve. As a reminder, the inhibition is the share of the control response that was lost under treatment.

The subject of assay [1] is MDA-MB-438. The experiment in a line: WST-1 proliferation assay, MDA-MB-438. Type of assay: cell-based. Conditions: Homo sapiens; for IC50: Breast MDA-MB-438, 72 h, read-out: Anti-proliferative activity IC50 (μM) ± SD; for inhibition at 0.1 µM: MDA-MB-438, 0.1 μM; for inhibition at 0.5 µM: MDA-MB-438, 0.5 μM; for inhibition at 1 µM: MDA-MB-438, 1 μM. An excerpt:
(§1) Several cancer cell lines were used: breast cancer cells (MDA-MB-231 (ATTCC® Number HTB-26™), MDA-MB-436 (ATTCC® Number HTB-130™), MDA-MB-438, BT-474 (ATTCC® Number HTB-20™)); cervical cancer cells (HeLa (ATTCC® Number CCL-2™)); colon cancer cells (HCT-116 (ATTCC® Number CCL-247™) and HT-29 (ATTCC® Number HTB-38™)); osteosarcoma cells (U2OS (ATTCC® Number HTB-96™)); pancreas cancer cells (MIA PaCa-2 (ATTCC® Number CRL-1420™) and Panc-10.5 (ATTCC® Number CRL-2547™)); prostate cancer cells (PC-3 (ATTCC® Number CRL-1435™) and LNCaP (ATTCC® Number CRL-1740™)); brain cancer cells (U87 glioblastoma (ATTCC® Number HTB-14™) and SH-SYSY neuroblastoma (ATTCC® Number CRL-2266™)).
(§2) All the cancer cell lines were maintained in cultured in DMEM GlutaMAX™ (GIBCO Invitrogen, France, cat no 31966047) enhanced with 10% foetal bovine serum (GIBCO Invitrogen, France, cat no 10270-106) and 1% penicillin G/streptomycin (GIBCO Invitrogen, France, cat no 15140-122). Only Panc-10.5 cells were cultivated in RPMI 1640 medium (Gibco) supplemented with 2 mM L-glutamine, 1.5 g/L sodium bicarbonate, 4.5 g/L glucose, 10 mM HEPES, 1 mM sodium pyruvate, 10 Units/ml human insulin, […] (SVF): 15% (75 ml in 500 ml of medium).
(§3) Cells were grown as subconfluent monolayer and cultured in 75 cm^2 flasks at 37° C., 5% CO2 in a humidified atmosphere, and medium was changed every two days. Only cells from passages 2-6 were used for the experiments.
(§4) After observation of cells under the microscope, old media were removed and the adherent cells washed gently twice with PBS (Phosphate Buffer Saline, —Ca^2+, —Mg^2+, Lonza cat no: 17-512F/12). All cells were detached with 3 ml of trypsin/EDTA (chelator of calcium and magnesium ions) (Lonza), incubated for 5 min at 37° C., and examined using a microscope to ensure that the cells were detached and floating. Then, 3 ml TNS (Trypsin Neutralizing Solution, Lonza, France, cat no CC-5002) or of culture medium were added to inactivate the trypsin, and the cell suspension was transferred in a falcon and centrifuged for 7 min at 1400 rpm. The supernatant was removed and the cell pellet resuspended in […] of culture medium. 50 μl of this solution were transferred in 20 μl of isotonic solution and the cells were counted by count cellular (Beckman Coulter). At day 0, 200 μl of cellular suspension (3.10^3 cells/well for the HUVEC cells, breast cancer cells (MDA-MB-231 1.10^4 cells/well, MDA-MB-436 1.10^4 cells/well, MDA-MB-438 2.10^4 cells/well, BT-474 2.5.10^4 cells/well); cervical cancer cells (HeLa 5.000 cells/well); colon cancer cells (HCT-116 5.10^3 cells/well, HCT-29 1.1.10^4 cells/well); osteosarcoma cells (U2OS 8.10^3 cells/well); pancreas cancer cells (MIA PaCa-2 5.10^3 cells/well, Panc-10.5 1.5.10^4 cells/well); prostate cancer cells (PC-3 4.10^3 cells/well, LNCaP 2.10^4 cells/well); brain cancer cells (U87 5.10^3 cells/well, SH-SYSY 8.10^4 cells/well)) were then plated on 96 well plates and incubated at 37° C. in a humidified atmosphere of 5% CO2 for 24 h.
(§5) At day 1, the compounds 1 or 2 of the invention were added at increasing concentrations (0.1-10 μM) in the wells and plates were incubated at 37° C. in a humidified atmosphere of 5% CO2 for 72 h.
(§6) The cell proliferation WST-1 assay is a colorimetric assay for the quantification of cell proliferation and viability, based on the enzymatic cleavage of the tetrazolium salt WST-1 added to the culture medium, to a water soluble colored formazan dye, detected by absorbance at 450 nm, by mitochondrial succinate-tetrazolium reductase in viable cells. An augmentation in enzyme activity will then lead to an increase in the amount of formazan dye formed, which directly correlates to the number of metabolically active cells in the culture.
(§7) After an incubation period of 72 h, at day 4, were prepared the 19 ml medium with reagent WST-1 1 ml ([…]). The medium was removed from the 96 microplate and 200 μl of solution WST-1/medium were added for each well. […]
On the technique in general: Formazan colour is commonly taken as a measure of viable cells.

The test system of assay [2] is HeLa. The experiment in a line: WST-1 proliferation assay, HeLa. Type of assay: cell-based. Conditions: Homo sapiens; for IC50: Cervical HeLa, 72 h, read-out: Anti-proliferative activity IC50 (μM) ± SD; for inhibition at 0.1 µM / inhibition at 0.5 µM / inhibition at 1 µM: HeLa.
Text: as §1, §2, §3, §4, §5, §6, §7

Assay [3] has as its system HT-1080. The experiment in a line: WST-1 proliferation assay, HT-1080. In kind it is cell-based. Particulars: Homo sapiens; Fibrosarcoma HT-1080; read-out: Anti-proliferative activity IC50 (μM) ± SD. The procedure:
as §2
(§8) Cells were grown as subconfluent monolayer and cultured in 75 cm^2 flasks at 37° C., 5% CO2 in a humidified atmosphere, and medium was changed every two days. […]
(§9) The cell proliferation WST-1 assay is a colorimetric assay for the quantification of cell proliferation and viability, based on the enzymatic cleavage of the tetrazolium salt WST-1 added to the culture medium, to a water soluble colored formazan dye, detected by absorbance at 450 nm, by mitochondrial succinate-tetrazolium reductase in viable cells. […]
(§10) After an incubation period of 72 h, at day 4, were prepared the 19 ml medium with reagent WST-1 1 ml ([…]). […] The cells were incubated at 37° C. in a humidified atmosphere of 5% CO2 for 1 h 30 and the absorbance at 450-655 nm was measured by Microplate Manager 5.2 (Bio-Rad).

Assay [4] deals with VAL. The experiment in a line: WST-1 proliferation assay, VAL. In kind it is cell-based. Particulars: Homo sapiens; B lymphoma VAL; read-out: Anti-proliferative activity IC50 (μM) ± SD. As to the method:
as §2, §8, §9, §10

The test system of assay [5] is breast cancer cells (MDA-MB-231). The experiment in a line: Motility assay (videomicroscopy), MDA-MB-231. In kind it is cell-based, Human. Conditions: IC50 concentration, 24 h (FIG. 6). The procedure: The dishes were placed in an enclosed warming incubator on the motorized stage of a computer-controlled Eclipse Ti inverted microscope (Nikon Instruments Europe) equipped with a CCD Cool-SNAP HQ2 camera (Roper Scientific, USA) and a PC workstation. The incubator allowed samples to be kept at 37° C. in a humidified atmosphere containing 5% CO2, 95% air. Phase images were recorded at 100× every 5 min simultaneously over several fields from 0 till 24 h (288 frames). Cell motility was tracked and analyzed for at least 25 cells in each field over three independent experiments. The total distance of migration and the speed of migration were analyzed. The degree of persistence of movement was defined as the ratio between the linear distance and the total distance covered by the cells. Image acquisition and analyses were carried out using Metamorph 7 software (Universal Imaging).

In the case of `Cc1ccc(-c2nc3ccccc3[nH]2)cc1NC(=S)NC(=O)c1ccc2c(c1)OCCO2` [Compound 1, N-[5-(1H-benzimidazol-2-yl)-2-methylphenyl]-N′-(2,3-dihydro-1,4-benzodioxin-6-ylcarbonyl)thiourea], the IC50 in assay [1] worked out at 1 µM; in assay [2], 0.4 ± 0.04 µM; in assay [3] it was 0.3 ± 0.23 µM; in assay [4] it was 1.8 ± 0.04 µM. Besides, the inhibition at 0.1 µM was 4% in assay [1] and 13% in assay [2]. The inhibition at 0.5 µM worked out at 40% in assay [1] and 64% in assay [2]. Moreover, the inhibition at 1 µM in assay [1] worked out at 55%; in assay [2], 68%. In assay [5], the “motility (migration speed) of cancer cells” value is recorded as “significant anti-migratory effect”.
As for `O=C(NC(=S)Nc1cccc(-c2nc3ccccc3[nH]2)c1)c1ccc2c(c1)OCCO2` [Compound 2, N-[3-(1H-benzimidazol-2-yl)phenyl]-N′-(2,3-dihydro-1,4-benzodioxin-6-ylcarbonyl)thiourea], in assay [1], the IC50 came to 0.5 ± 0.03 µM, the inhibition at 0.1 µM amounted to 34%, the inhibition at 0.5 µM is 51% and the inhibition at 1 µM came out at 58%. Further, in assay [2], the IC50 came out at 0.05 ± 0.04 µM, the inhibition at 0.1 µM is 62%, at 0.5 µM the inhibition was 64% and the inhibition at 1 µM stood at 67%. Moreover, in assay [3], the IC50 was 0.07 ± 0.03 µM. For the same compound, the IC50 in assay [4] is 1 µM. In addition, the “motility (migration speed) of cancer cells” value in assay [5] is listed as “significant anti-migratory effect”.
